Assay: in vitro
Conditions: human, hela cells, % viability

Row | Compound | viability at 28.5 h, 10 µM [%] | viability at 28.5 h, 10 µM (bulk resorufin, single well) [%]
1 | O=C(CN1CCN(c2ccc(C(F)(F)F)cn2)CC1)c1ccccc1 [CBK074699] | 111 | 
2 | CS(=O)(=O)c1ccc(-c2nccnc2N[C@@H]2CCN(Cc3ccccc3)C2)cc1 [CBK037667] | 102 | 
3 | CC(NC(=O)N(Cc1cccc2ccccc12)C1CCC(N)CC1)c1cccc2ccccc12 (centres unmarked) [CBK000482C] | 67.8 | 
4 | C[C@@H](Nc1nccnc1-c1ccc(C(=O)N2CCOCC2)cc1)c1ccccc1 [CBK037058] | 107 | 
5 | CCOc1ccc(C(=O)Nc2ccc(Cc3ccncc3)cc2)cc1[N+](=O)[O-] [CBK262867] | 114 | 
6 | O=C(c1c[nH]c(C(=O)N2CCN(c3ccccn3)CC2)c1)c1ccc(Cl)cc1Cl [CBK107419] | 86.5 | 
7 | CNC(=O)C1(Cc2ccc(-c3ccccc3)cc2)CCN(C(=O)c2ccccc2OC)CC1 [CBK285767] | 85.9 | 
8 | Cc1nc2n(CCN3CCCCC3)c3ccccc3n2c1C(=O)c1cccs1 [CBK278242B] | 88.6 | 
9 | O=C(N[C@@H](Cc1ccc(O)cc1)C(=O)O)OCc1ccccc1 [CBK287012] | 94.8 | 
10 | Cc1cccc(C(=O)N2CCCCC2C)c1 (centres unmarked) [CBK074052] | 118 | 
11 | CC(C)c1cc(C(=O)N2CCOCC2)c(NC(=O)c2cc(-c3cccnc3)nc3ccc(Br)cc23)s1 [CBK267763] | 93.7 | 
12 | FC(F)(F)c1cccc(CSc2nccnc2N2CCCC2)c1 [CBK107178] | 94.7 | 
13 | Cc1ccccc1C(=O)NC(NC(=S)Nc1sc2c(c1C(N)=O)CCCC2)C(Cl)(Cl)Cl (centres unmarked) [CBK261047] | 97.9 | 
14 | COc1ccc(-c2ccc(CN(Cc3ccc4c(c3)OCO4)CC(C)O)cc2)cc1 (centres unmarked) [CBK286470] | 95 | 
15 | CN(c1ccc(C(=O)Nc2cccc(C(=O)O)c2)cc1)S(=O)(=O)c1ccccc1 [CBK265729] | 95.7 | 
16 | COc1ccc(-c2nnc(SC(C)c3nnc(-c4ccccc4)o3)n2CC(C)C)cc1 (centres unmarked) [CBK297108] | 103 | 
17 | Cc1cccnc1NC(=O)c1ccc(N2CCN(C)CC2)c([N+](=O)[O-])c1 [CBK269366] | 95.4 | 
18 | c1ccc2c(c1)CCN(Cc1ncc[nH]1)C2 [CBK126402] | 94.7 | 
19 | CC(C)C(=O)N1CCC(c2[nH]ncc2-c2ccncc2)CC1 [CBK284237] | 79.6 | 
20 | CC(=O)C(Sc1nc(NC(C)C)nc(N(C)C)n1)C(C)=O [CBK269811] | 90.8 | 
21 | COc1cc(-c2cncc(NC(C)CCCC(C)(C)O)n2)cc(OC)c1OC (centres unmarked) [CBK065481] | 102 | 
22 | CCOc1cccc(-c2cn3ccnc3c(NC3CC3)n2)c1 [CBK066736] | 91.6 | 
23 | c1ccc(Cn2cc(-c3nccnc3OCc3ccccn3)cn2)cc1 [CBK107088] | 98.9 | 

Row | Compound | viability at 28.5 h, 10 µM [%] | viability at 28.5 h, 10 µM (bulk resorufin, single well) [%]
24 | CN(C)CCN(C)c1cncc(-c2cccc(N(C)C)c2)n1 [CBK065659] | 100 | 
25 | Cc1nc(C(F)(F)F)ccc1COC(=O)N1CCOCC1 [CBK200122] | 85.9 | 
26 | O=C(NC1CCCOC1)C1CCN(Cc2ccccc2Cl)CC1 (centres unmarked) [CBK282520] | 107 | 
27 | COc1ccc2cc(OCCO)ccc2c1 [CBK176054] | 63.6 | 
28 | Cn1cnc2cc(NC(=O)NCCN3CCCC(CO)C3)ccc21 (centres unmarked) [CBK307582] | 107 | 
29 | Cc1nn(CCNC(=O)C2CC(=O)N(Cc3ccccn3)C2)c(C)c1Cl (centres unmarked) [CBK307316] | 85.1 | 
30 | CSCCC(=O)NCCc1c[nH]c2ccc(Cl)cc12 [CBK159775] | 95.6 | 
31 | O=C(NC(=O)N1CCOCC1)c1csnn1 [CBK005561] | 86.4 | 
32 | COc1cccc(-c2nnc(SCC(=O)Nc3cc(C)on3)o2)c1 [CBK287391] | 89.9 | 
33 | O=C(NC1CCN(Cn2nnc3ccccc3c2=O)CC1)C1CC1 [CBK305584] | 82.3 | 
34 | CC(=O)Nc1cccc(C(C)NC(=O)N(C)C2CCc3ccccc32)c1 (centres unmarked) [CBK306251] | 102 | 
35 | CN(C(=O)C1CCN(Cc2cccc(C(F)(F)F)c2)CC1)C(c1ccc(F)cc1)c1ccccn1 (centres unmarked) [CBK148409] | 95.7 | 
36 | Cc1nc(C(F)(F)F)ccc1C(=O)Nc1nc(CC(N)=O)cs1 [CBK305776] | 100 | 
37 | CCOC(=O)CSc1nnc(-c2ccc(Cl)cc2)o1 [CBK068845] | 105 | 
38 | CCCC/C=C/c1nccnc1N[C@@H](CO)C(C)C [CBK037514] | 101 | 
39 | O=C(NCCc1c[nH]c2ccccc12)C(=O)Nc1ccncc1 [CBK287754] | 101 | 
40 | O=C(Cn1cccc(C(=O)NCc2ccccc2)c1=O)Nc1cc(F)ccc1N1CCCC1 [CBK286041] | 101 | 
41 | COc1ccc(C2(CN3CCC(NC(=O)C(C)C)CC3)CC2)cc1 [CBK285374] | 104 | 
42 | C#CCNC(=O)C1CCN(c2nc3ccccc3n2CC=C)CC1 [CBK283925] | 95.4 | 
43 | CCC1CCCCN1C(=O)c1ccc(C)s1 (centres unmarked) [CBK084526] | 96.6 | 
44 | CCCNC(=O)Cn1cnc2sc(C(=O)Nc3ccc(OCC)cc3)c(C)c2c1=O [CBK071920] | 91.2 | 
45 | C=C(C)Cn1c(SCC(C)C)nnc1-c1ccc(O)nc1 [CBK200094] | 92.2 | 
46 | Cc1cc(C)n(CC(C)NC(=O)N2CCC(Oc3cccnc3)C2)n1 (centres unmarked) [CBK305342] | 92.1 | 

Row | Compound | viability at 28.5 h, 10 µM [%] | viability at 28.5 h, 10 µM (bulk resorufin, single well) [%]
47 | CCC(c1ccc(F)cc1)N(C)C(=O)Cn1cccc(C(=O)Nc2ccc(F)cc2)c1=O (centres unmarked) [CBK286061] | 88.7 | 
48 | COc1ccc(S(=O)(=O)Nc2c(C(=O)N3CCOCC3)sc3ncccc23)cc1OC [CBK050005] | 108 | 
49 | CCOc1ccsc1C(=O)Nc1c(OC)cc(F)cc1OC1CCNCC1 [CBK050292T] | 94.3 | 
50 | COc1cccc(Cn2c(=O)n(C)c3ncccc32)c1 [CBK282391] | 81.1 | 
51 | CCc1cc(Br)ccc1S(=O)(=O)NCCOc1ccccc1 [CBK044882] | 88.4 | 
52 | Cc1nn(C)cc1CN(CCCn1ccnc1)Cc1cccc(F)c1 [CBK283098] | 92.3 | 
53 | Cc1cccnc1NC(=S)Nc1ccc(S(N)(=O)=O)cc1 [CBK267049] | 111 | 
54 | COc1ccc(C(=O)C(C)OC(=O)c2ccc3ccccc3n2)cc1 (centres unmarked) [CBK111937] | 99 | 
55 | COc1ccc(NC(=O)c2cnc3sc(C)cn3c2=O)c(OC)c1 [CBK287712] | 87 | 
56 | CCN1CCN(C(=O)Cc2cccnc2)CC1 [CBK200375] | 92.3 | 
57 | O=C(CN1CCOCC1)Nc1sc2c(c1C(=O)Nc1ccc(Cl)cc1)CCC2 [CBK265056] | 102 | 
58 | Cc1ccc(-c2nnc3s/c(=C\c4ccc([N+](=O)[O-])cc4)c(=O)n23)cc1 [CBK264882] | 101 | 
59 | SC1=NC2(CCCC2)NN1c1ccc(Cl)cc1 [CBK288391] | 83.2 | 
60 | COc1ccc(-c2cc(C(=O)O)nn2C2CCS(=O)(=O)C2)cc1 (centres unmarked) [CBK286990] | 87.8 | 
61 | CN(C(=O)c1cc[nH]n1)C1CCN(c2ncnc3ccccc23)CC1 [CBK305916] | 79 | 
62 | O=C1NC(c2cccnc2)Nc2sc3c(c21)CCCC3 (centres unmarked) [CBK072377] | 103 | 
63 | CC1SC2(C(=O)Nc3ccccc32)N(c2ccc(Oc3ccccc3)cc2)C1=O (centres unmarked) [CBK103750] | 92.5 | 
64 | COCCn1c(SCC(=O)N2CCCc3ccccc32)nc(O)cc1=O [CBK304191] | 59.5 | 
65 | COC(=O)c1ccc(/C=N/NC(=O)CCc2c(C)n[nH]c2C)cc1 [CBK262904] | 117 | 
66 | CCCc1ccc(S(=O)(=O)Nc2nc(-c3cccc([N+](=O)[O-])c3)cs2)cc1 [CBK000987] | 88.1 | 
67 | COCCNC(=O)Cn1c(-c2cccs2)cc2cccnc21 [CBK282554] | 109 | 
68 | COc1ccc(C(CC(=O)c2ccc(C)cc2)Nc2ccc([N+](=O)[O-])cc2)cc1 (centres unmarked) [CBK268187] | 92.2 | 
69 | CC(=O)N1CCN(C[C@@H]2C=C(C)[C@H](Cc3nnc(C(C)(C)C)o3)C[C@H]2C(C)C)CC1 [CBK289221] | 86 | 

Row | Compound | viability at 28.5 h, 10 µM [%] | viability at 28.5 h, 10 µM (bulk resorufin, single well) [%]
70 | Fc1cc(Br)ccc1COc1cccnc1Cl [CBK161281] | 68.4 | 
71 | O=C(CN1CCN(S(=O)(=O)N2CCCCCC2)CC1)Nc1cc(Cl)ccc1Cl [CBK269587] | 90.1 | 
72 | O/N=C/c1ccc(-c2cc(Cl)ccc2Cl)o1 [CBK288500] | 92.6 | 
73 | CC(=O)Nc1cccc(Oc2nccnc2-c2ccc(C)cc2C)c1 [CBK106986] | 95.3 | 
74 | CC(Cn1cc(Cl)cn1)C(=O)N1CCN(C)CC1c1ccccc1 (centres unmarked) [CBK282016] | 111 | 
75 | CN(CC(O)CN1CCOCC1)C(=O)c1cc2sccc2[nH]1 (centres unmarked) [CBK306437] | 95.8 | 
76 | c1cncc(OCCOc2nsnc2N2CCNCC2)c1 [CBK001825G] | 94.4 | 
77 | CC(C)OC(=O)CSc1nnc(-c2cnccn2)n1Cc1ccco1 [CBK267586] | 117 | 
78 | COc1ccc(C(=O)[C@@H]2CCCN(C(=O)OC(C)(C)C)C2)cc1 [CBK284308] | 98.7 | 
79 | CSc1ccc(CN(C)c2cncc(-n3cccn3)n2)cc1 [CBK298326] | 91.2 | 
80 | NCCSC1CC(=O)N(Cc2cccs2)C1=O (centres unmarked) [CBK269047C] | 92.3 | 
81 | COc1ccc(CCNS(=O)(=O)c2ccc(C3CNC(=O)C3)cc2)cc1OC (centres unmarked) [CBK268352] | 112 | 
82 | CS(=O)(=O)c1ccc(C(=O)N(Cc2ccccc2)c2ccc(S(=O)(=O)N3CCOC3=O)cc2)cc1 [CBK024590] | 110 | 
83 | O=c1[nH]c(=O)c2cc(S(=O)(=O)NC3CCN(Cc4ccccc4)C3)ccc2[nH]1 (centres unmarked) [CBK286380] | 109 | 
84 | Cc1c(C(=O)O)sc(S(=O)(=O)N2CCN(C(=O)c3ccc(F)cc3)CC2)c1C(=O)O [CBK297118] | 107 | 
85 | O=C(c1ccc2ccccc2c1)N1CCC2(CC1)CN(Cc1ccccc1)CCO2 [CBK161118A] | 94.1 | 
86 | O=P(O)(O)Cc1ccccc1-c1ccccc1 [CBK012659] | 111 | 
87 | CN(Cc1cccnc1)CC1CCCN(C(=O)Nc2ccc(Cl)cc2)C1 (centres unmarked) [CBK305428] | 83.9 | 
88 | Cc1nnsc1C(=O)N[C@H]1CCN2C(=O)N(CCCl)C(=O)[C@@H]2C1 [CBK289550] |  | 95.6
89 | Cc1ccc(S(=O)(=O)Nc2ccc(Nc3cc(-c4ccsc4)ncn3)cc2)cc1 [CBK037792] | 96.5 | 

— publication PMC12040169 (PLOS Biology, 2025)
